Values quoted from earlier work in patent publication US20220143227A1, “Method of Treatment of Neuroendocrine Tumors That Over-Express Somatostatatin Receptors” (ADVANCED ACCELERATOR APPLICATIONS, priority 2015, published 2022).
Like-named read-outs stand apart in the source and are kept apart here.

What was measured:
[1] = human, in vivo
[2] = test system: lymphocytes; details: B- versus T-lymphocytes
[3] = test system: human xenograft tumor model of NET; details: in vivo
[4] = test system: progressive neuroendocrine tumors of pancreatic origin, and NETs of gastrointestinal (GI) or lung origin; details: Phase 3 trials
[5] = test system: advanced melanoma
[6] = test system: pos-tdocetaxel CRPC; details: phase III trial

For C[C@@H](O)[C@H](NC(=O)[C@@H]1CSSC[C@H](NC(=O)[C@@H](Cc2ccccc2)NC(=O)CN2CCN(CC(=O)[O-])CCN(CC(=O)[O-])CCN(CC(=O)[O-])CC2)C(=O)N[C@@H](Cc2ccc(O)cc2)C(=O)N[C@H](Cc2c[nH]c3ccccc23)C(=O)N[C@@H](CCCCN)C(=O)N[C@@H]([C@@H](C)O)C(=O)N1)C(=O)O.[177Lu+3] [Lutathera, [177]Lutetium-DOTA[O]-Tyr[3]-Octreotate], the “severe hematologic toxicity Grade 3-4” value [1] is listed as 3.1 % of the cases, the “lymphocyte toxicity, specificity” value [2] is listed as “more specific to B-lymphocytes” and the “CD86+ APC infiltration” value [3] is listed as “increased CD86+ APC infiltration”. The “expression of CD86 on APC” value [3] was “increased expression of CD86”.

For CO[C@H]1C[C@@H]2CC[C@@H](C)[C@@](O)(O2)C(=O)C(=O)N2CCCC[C@H]2C(=O)O[C@H]([C@H](C)C[C@@H]2CC[C@@H](OCCO)[C@H](OC)C2)CC(=O)[C@H](C)/C=C(\C)[C@@H](O)[C@@H](OC)C(=O)[C@H](C)C[C@H](C)/C=C/C=C/C=C/1C [Everolimus], the PFS [4] is given as 11 months.

For “ipilimumab: antibody that targets the CTLA-4/B7 receptor complex, approved for unresectable or metastatic melanoma”, the “abscopal effect among patients with local response” value ([5]; 13 patients with local response) is listed as 85%, the no local regression ([5]; 21 patients, RT after ipilimumab progression) is listed as 38% and the “median OS” value ([5]; all 21 patients) is listed as 13 months. The “median OS” value ([5]; patients with abscopal responses) was 22.4 months, the “median OS” value ([5]; patients without abscopal responses) was 8.3 months and the “improvement in OS with addition of ipilimumab to RT” value [6] was “no significant improvement in OS”.
